Measurements published in ChEMBL document CHEMBL3580537, “Neristatin 1 provides critical insight into bryostatin 1 structure-function relationships” (J Nat Prod, 2015).
Activity calls are given as the source filed them. No cut-off for these calls is given here.

Legend:
U-937 [1] = experiment: Growth inhibition of human U937 cells at 1000 nM in presence of 10 nM PMA after 72 hrs by particle counter based cell counting assay; format: functional
U-937 [2] = experiment: Induction of TNFalpha secretion in human U937 cells at 0.01 nM to 10000 nM by real time qPCR method relative to PMA; format: functional
U-937 [3] = experiment: Growth inhibition of human U937 cells at 0.1 nM to 3000 nM after 72 hrs by particle counter based cell counting assay; format: functional
U-937 [4] = experiment: Induction of cell attachment of human U937 cells at 0.1 nM to 3000 nM after 60 hrs by particle counter based cell counting assay; format: functional
[5] = target: Protein kinase C alpha type (Homo sapiens, UniProt P17252); experiment: Inhibition of [20-3H]phorbol 12,13-dibutyrate binding to human PKCalpha by scintillation counting based poly(ethylene) glycol precipitation assay
U-937 [6] = experiment: Induction of cell attachment of human U937 cells at 0.1 nM to 1000 nM after 60 hrs by particle counter based cell counting assay; format: functional
U-937 [7] = experiment: Inhibition of PMA-induced TNFalpha secretion in human U937 cells at 0.01 nM to 10000 nM by real time qPCR method; format: functional, cell-based
U-937 [8] = experiment: Induction of TNFalpha secretion in human U937 cells at 0.01 nM to 10000 nM by real time qPCR method; format: functional, cell-based
U-937 [9] = experiment: Growth inhibition of human U937 cells at 0.1 nM to 1000 nM after 72 hrs by particle counter based cell counting assay; format: functional
U-937 [10] = experiment: Suppression of PMA-induced growth inhibition of human U937 cells at 1000 nM after 72 hrs by particle counter based cell counting assay; format: functional
Toledo [11] = experiment: Potency index, ratio of IC50 for neristatin-1 to IC50 for test compound against human Toledo cells after 72 hrs by particle counter based cell counting assay; format: functional
U-937 [12] = experiment: Inhibition of PMA-induced cell attachment of human U937 cells at 1000 nM after 60 hrs by particle counter based cell counting assay; format: functional
[13] = Growth inhibition of human Toledo cells after 72 hrs by particle counter based cell counting assay; format: functional
Toledo [14] = experiment: Potency index, ratio of IC50 for Merle-43 to IC50 for test compound against human Toledo cells after 72 hrs by particle counter based cell counting assay; format: functional

Row | Compound | growth inhibition (GI) (U-937 [1]) | Activity (U-937 [2]) | growth inhibition (GI) (U-937 [3]) | Activity (U-937 [4]) | Ki [5] | Activity (U-937 [6]) | inhibition (U-937 [7]) | Activity (U-937 [8]) | growth inhibition (GI) (U-937 [9]) | inhibition (U-937 [10]) | Ratio IC50 (Toledo [11]) | inhibition (U-937 [12]) | IC50 [13] | Ratio IC50 (Toledo [14])
1 | CCCCCCCC(=O)O[C@H]1/C(=C/C(=O)OC)C[C@H]2C[C@@H](O)[C@@H](C)OC(=O)C[C@H](O)C[C@@H]3C[C@H](OC(C)=O)C(C)(C)[C@](O)(CCOC(=O)/C=C/C(C)(C)[C@]1(O)O2)O3 | Active | 60% | Active | Active | – | – | – | – | – | – | – | – | – | –
2 | CCC/C=C/C=C/C(=O)O[C@H]1/C(=C/C(=O)OC)C[C@H]2C[C@H]([C@@H](C)O)OC(=O)C[C@H](O)C[C@@H]3C[C@H](OC(C)=O)C(C)(C)[C@](O)(C[C@@H]4C/C(=C/C(=O)OC)C[C@H](/C=C/C(C)(C)[C@]1(O)O2)O4)O3 [BRYOSTATIN 1] | – | – | – | – | 0.48 nM | inactive | Active | inactive | inactive | Active | 17 | Active | – | –
3 | CCCCCCCCCCCCCC(=O)O[C@@H]1[C@@H](C)[C@@]2(O)[C@@H](C=C(CO)C[C@]3(O)C(=O)C(C)=C[C@@H]23)[C@@H]2C(C)(C)[C@]12OC(C)=O [PHORBOL MYRISTATE ACETATE] | – | – | – | – | – | Active | – | Active | 50% | – | – | – | – | –
4 | COC(=O)/C=C1/C[C@H]2C[C@]3(O)O[C@H](C[C@@H](O)CC(=O)O[C@H](C)[C@H](O)C[C@@H]4C[C@@H]5CC(=O)O[C@@]5(O4)C(=O)C(C)(C)/C=C/[C@@H](C1)O2)C[C@H](OC(=O)C(C)(C)C)C3(C)C | – | – | – | – | 21.2 nM | inactive | Active | inactive | inactive | Active | – | Active | 1.58 nM | 2.5
